From patent US11174252B2, “Heterocyclic compounds as kinase inhibitors” (priority 2018, dated 2021) come the findings set out here.

In assay [1] the test system is DU4475. Nature of the assay: Cancer cell proliferation assay, single agent. The class given is cell-based. The following applies: Homo sapiens.
Assay [2] has as its target FMS kinase (Homo sapiens (Human), UniProt P07333). The assay can be described thus: LanthaScreen kinase assay (ATP, fluorescent-PolyGT substrate, TR-FRET). The class given is biochemical. On the technique in general: In TR-FRET formats the signal depends on donor and acceptor labels being close together.
For assay [3], the target named is CDK6 (Homo sapiens (Human), UniProt Q00534). Nature of the assay: biochemical. Type of assay: biochemical.
Assay [4] concerns the target PI3Kδ kinase (Homo sapiens (Human), UniProt O00329). Nature of the assay: PI3Kδ kinase ADP-Glo assay (Reaction Biology Corporation).
The test system of assay [5] is MCF-7. Nature of the assay: Cancer cell proliferation assay, single agent. The class given is cell-based. The following applies: Homo sapiens.
Assay [6] concerns the target CDK4 (Homo sapiens (Human), UniProt P11802). Nature of the assay: In vitro kinase inhibition, luminescence (ADP-Glo) with retinoblastoma substrate. Type of assay: biochemical.
In assay [7] the target is CDK1 (cyclin B) (Homo sapiens (Human), UniProt P06493). The assay can be described thus: Z'-LYTE kinase assay. The class given is biochemical. From the text: The following equations were used for Z′-LYTE™ Screening Assay Data Analysis.
Chain of CDK1 (cyclin B) (P06493 whole entry): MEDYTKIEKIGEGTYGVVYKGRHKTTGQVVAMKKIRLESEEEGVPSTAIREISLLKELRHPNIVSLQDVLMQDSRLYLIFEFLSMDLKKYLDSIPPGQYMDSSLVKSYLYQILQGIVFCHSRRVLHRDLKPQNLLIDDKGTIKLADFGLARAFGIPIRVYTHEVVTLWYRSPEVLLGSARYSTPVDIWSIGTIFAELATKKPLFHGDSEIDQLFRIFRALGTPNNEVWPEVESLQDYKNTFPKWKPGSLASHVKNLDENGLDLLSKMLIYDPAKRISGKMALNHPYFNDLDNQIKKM
Chain of CDK1 (cyclin B) (P14635 whole entry partner): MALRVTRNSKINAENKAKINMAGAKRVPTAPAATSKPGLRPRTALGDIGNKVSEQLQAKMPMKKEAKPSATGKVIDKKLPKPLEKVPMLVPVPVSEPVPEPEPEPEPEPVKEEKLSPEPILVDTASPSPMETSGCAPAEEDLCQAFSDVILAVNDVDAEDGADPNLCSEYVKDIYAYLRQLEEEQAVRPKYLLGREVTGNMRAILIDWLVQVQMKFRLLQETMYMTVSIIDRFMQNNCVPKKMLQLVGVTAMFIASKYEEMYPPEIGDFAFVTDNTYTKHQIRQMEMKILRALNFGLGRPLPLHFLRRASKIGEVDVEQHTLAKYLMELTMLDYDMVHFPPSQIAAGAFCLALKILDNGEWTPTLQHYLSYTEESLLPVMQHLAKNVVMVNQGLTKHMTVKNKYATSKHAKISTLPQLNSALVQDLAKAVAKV
The mark [8] stands for this setting: DU-4475, read-out: IC50 (nM) DU4475.
[9] abbreviates: MCF7, read-out: IC50 (nM) MCF-7.
Setting [10] is: DU-4475, DU4475 cells, treated for 24-168 hours, read-out: IC50 (nM) DU4475.
Where [11] appears, read: MCF7, MCF-7 cells, treated for 24-168 hours, read-out: IC50 (nM) MCF-7.

Read-outs that look alike come from different tables or passages of the source.

Chain of FMS kinase (P07333 20-972): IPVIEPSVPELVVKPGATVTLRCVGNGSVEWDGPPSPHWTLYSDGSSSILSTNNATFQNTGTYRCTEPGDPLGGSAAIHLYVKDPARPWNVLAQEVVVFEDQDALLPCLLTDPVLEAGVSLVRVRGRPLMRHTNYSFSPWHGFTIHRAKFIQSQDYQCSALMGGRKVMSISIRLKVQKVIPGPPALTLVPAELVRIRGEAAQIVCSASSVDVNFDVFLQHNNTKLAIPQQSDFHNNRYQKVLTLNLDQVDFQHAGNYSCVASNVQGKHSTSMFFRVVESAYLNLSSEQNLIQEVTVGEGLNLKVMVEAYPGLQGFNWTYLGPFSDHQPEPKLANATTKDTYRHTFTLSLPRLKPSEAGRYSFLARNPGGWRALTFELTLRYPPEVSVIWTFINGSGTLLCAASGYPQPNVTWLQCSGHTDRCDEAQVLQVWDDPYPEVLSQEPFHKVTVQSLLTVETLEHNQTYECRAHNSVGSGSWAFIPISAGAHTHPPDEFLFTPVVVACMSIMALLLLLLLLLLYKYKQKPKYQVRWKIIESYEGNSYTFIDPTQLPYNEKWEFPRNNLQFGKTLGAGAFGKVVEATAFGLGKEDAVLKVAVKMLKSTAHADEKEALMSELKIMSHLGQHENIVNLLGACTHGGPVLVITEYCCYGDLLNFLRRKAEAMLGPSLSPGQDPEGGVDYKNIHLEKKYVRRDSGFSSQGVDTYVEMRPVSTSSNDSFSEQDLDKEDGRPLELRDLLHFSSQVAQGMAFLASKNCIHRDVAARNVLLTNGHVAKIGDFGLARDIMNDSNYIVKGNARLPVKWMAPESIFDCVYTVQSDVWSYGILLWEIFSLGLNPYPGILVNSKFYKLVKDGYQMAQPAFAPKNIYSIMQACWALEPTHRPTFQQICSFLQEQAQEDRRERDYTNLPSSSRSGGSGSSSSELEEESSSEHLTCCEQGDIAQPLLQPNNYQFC
Chain of CDK4 (P11802 whole entry): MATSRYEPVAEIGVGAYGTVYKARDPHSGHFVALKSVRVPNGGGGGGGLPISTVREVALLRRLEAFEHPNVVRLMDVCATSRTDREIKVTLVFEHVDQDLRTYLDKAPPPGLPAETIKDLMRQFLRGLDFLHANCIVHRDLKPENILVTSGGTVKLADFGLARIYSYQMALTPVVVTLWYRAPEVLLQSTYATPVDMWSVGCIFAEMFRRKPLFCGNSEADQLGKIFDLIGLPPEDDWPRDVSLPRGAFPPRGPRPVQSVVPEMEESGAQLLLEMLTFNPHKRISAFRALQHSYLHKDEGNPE
Chain of CDK4 (P24385 whole entry partner): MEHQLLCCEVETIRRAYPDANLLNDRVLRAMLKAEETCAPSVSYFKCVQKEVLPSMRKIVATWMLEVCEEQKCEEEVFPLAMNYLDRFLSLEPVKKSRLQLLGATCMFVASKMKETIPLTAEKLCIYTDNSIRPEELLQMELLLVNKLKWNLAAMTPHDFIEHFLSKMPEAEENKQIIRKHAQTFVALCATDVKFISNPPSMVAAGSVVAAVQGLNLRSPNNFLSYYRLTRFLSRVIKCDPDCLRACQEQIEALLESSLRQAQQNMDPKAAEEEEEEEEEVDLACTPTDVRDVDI
Chain of PI3Kδ kinase (O00329 whole entry): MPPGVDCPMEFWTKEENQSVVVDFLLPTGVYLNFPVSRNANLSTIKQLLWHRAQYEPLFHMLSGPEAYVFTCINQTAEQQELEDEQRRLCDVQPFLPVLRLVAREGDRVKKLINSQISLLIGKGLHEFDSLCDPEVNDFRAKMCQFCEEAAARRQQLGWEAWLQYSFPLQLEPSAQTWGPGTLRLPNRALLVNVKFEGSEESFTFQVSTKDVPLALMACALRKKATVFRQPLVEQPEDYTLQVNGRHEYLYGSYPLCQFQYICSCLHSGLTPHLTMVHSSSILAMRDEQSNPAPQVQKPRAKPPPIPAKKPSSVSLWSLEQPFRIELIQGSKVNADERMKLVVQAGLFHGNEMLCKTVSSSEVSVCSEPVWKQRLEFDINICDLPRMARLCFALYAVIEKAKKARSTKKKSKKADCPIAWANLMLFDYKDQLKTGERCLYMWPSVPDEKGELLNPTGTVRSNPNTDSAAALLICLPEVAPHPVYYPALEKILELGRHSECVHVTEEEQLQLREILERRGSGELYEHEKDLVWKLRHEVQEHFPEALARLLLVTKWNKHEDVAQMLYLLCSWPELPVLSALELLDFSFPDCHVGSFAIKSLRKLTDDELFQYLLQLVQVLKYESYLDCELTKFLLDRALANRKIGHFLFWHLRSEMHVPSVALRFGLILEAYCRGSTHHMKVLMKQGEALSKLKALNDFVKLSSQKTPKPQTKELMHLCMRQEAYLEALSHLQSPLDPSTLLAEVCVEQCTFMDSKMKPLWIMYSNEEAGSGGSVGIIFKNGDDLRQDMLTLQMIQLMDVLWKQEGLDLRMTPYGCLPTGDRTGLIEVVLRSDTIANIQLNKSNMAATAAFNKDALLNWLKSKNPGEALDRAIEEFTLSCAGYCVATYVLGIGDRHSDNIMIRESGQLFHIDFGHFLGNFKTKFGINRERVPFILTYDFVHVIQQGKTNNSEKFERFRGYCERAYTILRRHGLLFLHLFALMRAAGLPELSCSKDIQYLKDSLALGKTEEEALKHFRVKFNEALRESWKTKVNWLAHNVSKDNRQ
Chain of PI3Kδ kinase (P27986 whole entry partner): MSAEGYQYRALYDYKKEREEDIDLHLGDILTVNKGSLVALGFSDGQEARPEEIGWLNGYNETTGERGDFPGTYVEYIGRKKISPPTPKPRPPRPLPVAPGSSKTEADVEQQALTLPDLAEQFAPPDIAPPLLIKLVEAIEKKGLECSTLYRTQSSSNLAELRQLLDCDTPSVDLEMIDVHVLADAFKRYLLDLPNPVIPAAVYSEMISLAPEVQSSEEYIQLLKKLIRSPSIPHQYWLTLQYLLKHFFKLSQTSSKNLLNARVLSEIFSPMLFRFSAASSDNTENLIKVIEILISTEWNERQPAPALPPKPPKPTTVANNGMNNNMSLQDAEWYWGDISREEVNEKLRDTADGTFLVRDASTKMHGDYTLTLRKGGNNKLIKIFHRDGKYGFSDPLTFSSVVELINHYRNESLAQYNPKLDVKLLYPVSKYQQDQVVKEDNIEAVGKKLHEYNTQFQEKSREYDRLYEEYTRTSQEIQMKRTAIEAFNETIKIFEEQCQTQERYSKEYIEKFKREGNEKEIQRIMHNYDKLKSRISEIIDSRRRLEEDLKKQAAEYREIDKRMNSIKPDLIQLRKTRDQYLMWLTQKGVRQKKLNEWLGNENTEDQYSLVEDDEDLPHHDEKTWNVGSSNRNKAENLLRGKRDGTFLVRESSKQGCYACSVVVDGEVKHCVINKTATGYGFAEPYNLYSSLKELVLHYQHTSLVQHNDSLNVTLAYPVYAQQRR

What is called IC50 is the concentration that gives 50% inhibition. As to `Fc1cnc(Nc2ccc(N3CCOCC3)cn2)nc1-c1cc(F)c2c(c1)N(C1CCC1)CCO2` [Compound 487, 4-(4-cyclobutyl-8-fluoro-3,4-dihydro-2H-benzo[b][1,4]oxazin-6-yl)-5-fluoro-N-(5-morpholinopyridin-2-yl)pyrimidin-2-amine], the IC50 in assay [1] (setting [8]) is 2170 nM; in assay [2], greater than 5000 nM; in assay [3] it was 112 nM; in assay [4] (read-out: PI3Kδ IC50), greater than 50000 nM; in assay [5] (setting [9]) it was 615 nM; in assay [6] it was 55 nM.
For `CN1CCC(c2ccc(Nc3ncc(F)c(-c4cc(F)c5c(c4)N(C4CCCC4)CCO5)n3)cc2F)CC1` [Compound 471, 4-(4-cyclopentyl-8-fluoro-3,4-dihydro-2H-benzo[b][1,4]oxazin-6-yl)-5-fluoro-N-(3-fluoro-4-(1-methylpiperidin-4-yl)phenyl)pyrimidin-2-amine], the IC50 in assay [1] (setting [8]) turned out to be 110 nM; in assay [2], 454 nM; in assay [3], 53 nM; in assay [4] (read-out: PI3Kδ IC50), 1990 nM; in assay [5] (setting [9]) it was 45 nM; in assay [6] it was 10 nM.
With `CC(C)CN1CCOc2c(F)cc(-c3nc(Nc4ccc(N5CCC(N(C)C)CC5)c(F)c4)ncc3F)cc21` [Compound 480, N-(4-(4-(dimethylamino)piperidin-1-yl)-3-fluorophenyl)-5-fluoro-4-(8-fluoro-4-isobutyl-3,4-dihydro-2H-benzo[b][1,4]oxazin-6-yl)pyrimidin-2-amine], the concentration for half-maximal inhibition (IC50) was 435 nM in assay [1] (setting [8]); 82 nM in assay [2]; 14 nM in assay [3]; 1160 nM in assay [4] (read-out: PI3Kδ IC50); 190 nM in assay [5] (setting [9]); 5.5 nM in assay [6].
As to `CC(C)N1CCOc2c(F)cc(-c3nc(Nc4ccc(N5CCC(CCO)CC5)cn4)ncc3F)cc21` [Compound 491, 2-(1-(6-((5-fluoro-4-(8-fluoro-4-isopropyl-3,4-dihydro-2H-benzo[b][1,4]oxazin-6-yl)pyrimidin-2-yl)amino)pyridin-3-yl)piperidin-4-yl)ethan-1-ol], the half-inhibitory concentration (IC50) was 450 nM in assay [1] (setting [10]), 4590 nM in assay [2], greater than 50000 nM in assay [4] (read-out: PI3Kδ IC50) and 465 nM in assay [5] (setting [11]).
Taken in the same sequence, the figures for `CC(=O)N1CCN(c2ccc(Nc3ncc(F)c(-c4cc(F)c5c(c4)N(C(C)C)CCO5)n3)nc2)CC1` [Compound 474, 1-(4-(6-((5-fluoro-4-(8-fluoro-4-isopropyl-3,4-dihydro-2H-benzo[b][1,4]oxazin-6-yl)pyrimidin-2-yl)amino)pyridin-3-yl)piperazin-1-yl)ethan-1-one] were 940 nM, 776 nM, 1160 nM and 300 nM.
For `OC1CCN(c2ccc(Nc3ncc(F)c(-c4cc(F)c5c(c4)N(C4CCC4)CCO5)n3)nc2)CC1` [Compound 486, 1-(6-((4-(4-cyclobutyl-8-fluoro-3,4-dihydro-2H-benzo[b][1,4]oxazin-6-yl)-5-fluoropyrimidin-2-yl)amino)pyridin-3-yl)piperidin-4-ol], the concentration for half-maximal inhibition (IC50) in assay [1] (setting [8]) is 1450 nM; in assay [2] it was greater than 5000 nM; in assay [3], 41 nM; in assay [4] (read-out: PI3Kδ IC50) it was greater than 50000 nM; in assay [5] (setting [9]) it was 325 nM; in assay [6], 16 nM.
For the molecule `CC(C)N1CCOc2c(F)cc(-c3nc(Nc4ccc(N5CCN(C)CC5=O)cn4)ncc3F)cc21` [Compound 472, 1-(6-((5-fluoro-4-(8-fluoro-4-isopropyl-3,4-dihydro-2H-benzo[b][1,4]oxazin-6-yl)pyrimidin-2-yl)amino)pyridin-3-yl)-4-methylpiperazin-2-one], the half-maximal inhibitory concentration (IC50) amounted to 570 nM in assay [1] (setting [8]), 29100 nM in assay [4], 30 nM in assay [5] (setting [9]) and 2.5 nM in assay [6].
For the molecule `CC(C)N1CCOc2c(F)cc(-c3nc(Nc4ccc(N5CCN6CCCC6C5)c(F)c4)ncc3F)cc21` (stereo not drawn) [Compound 473, 5-fluoro-N-(3-fluoro-4-(hexahydropyrrolo[1,2-a]pyrazin-2(1H)-yl)phenyl)-4-(8-fluoro-4-isopropyl-3,4-dihydro-2H-benzo[b][1,4]oxazin-6-yl)pyrimidin-2-amine], the IC50 in assay [1] (setting [10]) worked out at 55 nM; in assay [2] it was 7 nM; in assay [4] (read-out: PI3Kδ IC50) it was 3170 nM; in assay [5] (setting [11]) it was 30 nM.
Take `CC(C)CN1CCOc2c(F)cc(-c3nc(Nc4ccc(N5CCC(O)CC5)cn4)ncc3F)cc21` [Compound 488, 1-(6-((5-fluoro-4-(8-fluoro-4-isobutyl-3,4-dihydro-2H-benzo[b][1,4]oxazin-6-yl)pyrimidin-2-yl)amino)pyridin-3-yl)piperidin-4-ol]: the IC50 in assay [1] (setting [8]) was 2560 nM; in assay [2] it was greater than 5000 nM; in assay [3], 200 nM; in assay [4] (read-out: PI3Kδ IC50), greater than 50000 nM; in assay [5] (setting [9]) it was 830 nM; in assay [6] it was 101 nM.
In the case of `CC(C)CN1CCOc2c(F)cc(-c3nc(Nc4ccc(C5CCN(C)CC5)c(F)c4)ncc3F)cc21` [Compound 476, 5-fluoro-N-(3-fluoro-4-(1-methylpiperidin-4-yl)phenyl)-4-(8-fluoro-4-isobutyl-3,4-dihydro-2H-benzo[b][1,4]oxazin-6-yl)pyrimidin-2-amine], the concentration for half-maximal inhibition (IC50) in assay [1] (setting [8]) was determined as 135 nM; in assay [2] it was 174 nM; in assay [3] it was 25 nM; in assay [4] (read-out: PI3Kδ IC50), 703 nM; in assay [5] (setting [11]), 65 nM; in assay [6], 4 nM.
For the molecule `CC(C)N1CCOc2c(F)cc(-c3nc(Nc4ccc(N5CCC(CO)CC5)cn4)ncc3F)cc21` [Compound 485, (1-(6-((5-fluoro-4-(8-fluoro-4-isopropyl-3,4-dihydro-2H-benzo[b][1,4]oxazin-6-yl)pyrimidin-2-yl)amino)pyridin-3-yl)piperidin-4-yl)methanol], the half-inhibitory concentration (IC50) in assay [1] (setting [10]) is 555 nM; in assay [2] it was 3250 nM; in assay [4] (read-out: PI3Kδ IC50) it was greater than 50000 nM; in assay [5] (setting [11]), 470 nM.
Regarding `CC(C)N1CCOc2c(F)cc(-c3nc(Nc4ccc(N5CCC(C)(O)CC5)cn4)ncc3F)cc21` [Compound 484, 1-(6-((5-fluoro-4-(8-fluoro-4-isopropyl-3,4-dihydro-2H-benzo[b][1,4]oxazin-6-yl)pyrimidin-2-yl)amino)pyridin-3-yl)-4-methylpiperidin-4-ol], the concentration for half-maximal inhibition (IC50) in assay [1] (setting [10]) is 2480 nM; in assay [2] it was greater than 5000 nM; in assay [4] (read-out: PI3Kδ IC50), greater than 50000 nM; in assay [5] (setting [11]) it was 1340 nM.
Consider `CC(C)CN1CCOc2c(F)cc(-c3nc(Nc4ccc(N5CCOCC5)cn4)ncc3F)cc21` [Compound 489, 5-fluoro-4-(8-fluoro-4-isobutyl-3,4-dihydro-2H-benzo[b][1,4]oxazin-6-yl)-N-(5-morpholinopyridin-2-yl)pyrimidin-2-amine], for which the IC50 was 4500 nM in assay [1] (setting [8]); greater than 5000 nM in assay [2]; 159 nM in assay [3]; greater than 50000 nM in assay [4] (read-out: PI3Kδ IC50); 1820 nM in assay [5] (setting [11]); 90 nM in assay [6].
`CC(C)N1CCOc2c(F)cc(-c3nc(Nc4cnn(C5CCN(C)CC5)c4)ncc3F)cc21` [Compound 497, 5-fluoro-4-(8-fluoro-4-isopropyl-3,4-dihydro-2H-benzo[b][1,4]oxazin-6-yl)-N-(1-(1-methylpiperidin-4-yl)-1H-pyrazol-4-yl)pyrimidin-2-amine]: the half-maximal inhibitory concentration (IC50) is 85 nM in assay [7], 95 nM in assay [1] (setting [8]) and 40 nM in assay [5] (setting [9]).
